Data: patent US7329726B2, “Physiologically active peptides” (Seiren Kabushiki Kaisha, priority 2004, dated 2008)
Read-outs that look alike come from different tables or passages of the source. Peptide text beside a SMILES is read from it.

Experiments:
insect cell Sf9 [1] = experiment: Evaluation Test 2: Cell growth-promoting activity (MTT assay under serum-deprived conditions); assay type: cell-based; conditions: Sf9 cells; for OD 595 nm Average ± Standard deviation (n = 4): medium without FCS, 9 days at 27.5° C.
Experimental: Cell growth-promoting activity of the peptide according to the present invention was evaluated using an insect cell Sf9 (Invitrogen).
It is known that marked cell death as shown in Evaluation Test 1 and thereafter a decrease in cell growth occur when the Sf9 cells are exposed to drastic serum-deprived conditions. In this test, the cells to be tested were exposed under such drastic serum-deprived conditions and their growth ability was measured to evaluate cell growth-promoting effect of the peptide according to the present invention.
A cell suspension was prepared in the same manner as in Evaluation test 1, and peptide solutions were prepared using peptide A (the present invention) as in Evaluation test 1. Next, 50 μl of this cell suspension and 50 μl each of the peptide solutions were dispensed on a 96-well cell culture plate in the same manner as in Evaluation test 1, and this culture plate was incubated at 27.5° C. for 9 days.
After 9 days of incubation, cell growth-promoting effect was evaluated by the MTT assay.
Specifically, to each well of the 96-well plate incubated for 9 days was added 5 μl of 5 mg/ml 3-(4,5-dimethyl-2-thiazolyl)-2,5-diphenyl tetrazolium bromide (MTT) in phosphate-buffered physiological saline, and the plate was incubated at 27.5° C. for further 5 hours. During this culture process, MTT is transformed into insoluble formazan in viable cells. After 5 hours of incubation, cell culture supernatant was completely removed and then 200 μl each of a 10 mM […] solution with 10% SDS was added to each well to completely dissolve the cells and formazan in the cells. Next, the absorption coefficient at 595 nm was measured for each well using a microplate reader.
As a comparative example, an experiment was carried out in the same manner as the one with the abovementioned peptide A, except that peptide B was used in place of peptide A (the present invention), and then the absorption coefficient at 595 nm was measured for each well.
As another comparative example, an experiment was carried out in the same manner as described above for peptide A, except that a bovine serum albumin (Sigma) solution was used in place of the abovementioned peptide solutions, and then the absorption coefficient at 595 nm was measured for each well.
Here the value of the absorption coefficient in the NTT assay increases with an increase in viable cell density.

insect cell Sf9 [2] = assay type: cell-based; conditions: Sf9 cells; for Survival rate (%) Average ± Standard deviation (n = 4): Sf900IISFM medium without FCS, 5 days at 27.5° C.
Experimental: Cell death-preventing activity of the peptide according to the present invention was evaluated using an insect cell Sf9 (Invitrogen).
The Sf9 cell is usually subcultured using an Sf900IISFM medium (Invistrogen) containing 10% FCS (fetal calf serum) (Sigma) at a temperature of 27.5° C. It is known that marked cell death occurs when the Sf9 cells thus cultured are abruptly transferred into a medium without FCS and thus exposed to drastic serum-deprived conditions. In this test, cells to be tested were exposed under such drastic serum-deprived conditions and their survival rate was measured to evaluate cell death-preventing effect of the peptide according to the present invention.
First, Sf9 cells subcultured using a medium supplemented with 10% FCS were centrifuged at 1000 rpm at 4° C. for 5 minutes. Next, the supernatant was removed and the precipitated cells were suspended in an Sf900IISFM medium without FCS. The suspension was recentrifuged at 1000 rpm at 4° C. for 5 minutes to wash the cells.
Next, in order to expose the cells under drastic serum-deprived conditions, the washed cells were resuspended in an Sf900IISFM medium without FCS and a cell suspension having a cell density of 5×10^5 cells/ml was prepared.
On the other hand, peptide A (the present invention) was dissolved in an Sf900IISFM medium without FCS and peptide solutions were prepared at peptide concentrations of 0.2 mg/ml, 0.6 mg/ml, and 2.0 mg/ml. The peptide solutions thus prepared were sterilized by filtration.
Next, 50 μl of the abovementioned cell suspension and 50 μl each of the abovementioned peptide solutions were dispensed on a 96-well cell culture plate at a final cell density of 2.5×10^5 cells/ml and final peptide concentrations of 0.1 mg/ml, 0.3 mg/ml, and 1.0 mg/ml, respectively. This culture plate was incubated at 27.5° C. for 5 days.
After 5 days of incubation, cells were stained with Trypan blue and the number of dead cells and the number of viable cells were counted to obtain the survival rate. Here the survival rate means the ratio of the viable cell count to the total cell count upon cell counting.
As a comparative example, an experiment was carried out in the same manner as described above for peptide A, except that peptide B was used in place of peptide A (the present invention), to obtain the survival rate.
As another comparative example, an experiment was carried out in the same manner as described above for peptide A, except that a bovine serum albumin (Sigma) solution was used in place of the abovementioned peptide solutions, to obtain the survival rate.

[3] = sample concentration 1.0 mg/ml, listed as peptide A

C[C@@H](O)[C@H](NC(=O)[C@H](CO)NC(=O)[C@H](CO)NC(=O)CNC(=O)CNC(=O)[C@@H](N)CO)C(=O)N[C@@H](Cc1ccc(O)cc1)C(=O)NCC(=O)N[C@@H](Cc1ccc(O)cc1)C(=O)N[C@@H](CO)C(=O)O [Peptide A] (H-SGGSSTYGYS-OH; N-terminus assumed)
OD 595 nm Average ± Standard deviation (n = 4) (insect cell Sf9 [1]; sample concentration 0.1 mg/ml): 0.48 ± 0.01 | OD 595 nm Average ± Standard deviation (n = 4) (insect cell Sf9 [1]; sample concentration 0.3 mg/ml): 0.80 ± 0.02 | OD 595 nm Average ± Standard deviation (n = 4) (insect cell Sf9 [1]; sample concentration 1.0 mg/ml): 0.92 ± 0.02 | OD 595 nm Average ± Standard deviation (n = 4) (insect cell Sf9 [1]; [3]): about 0.9 | cell growth-promoting activity compared with peptide B (comparative example) (insect cell Sf9 [1]; serum-deprived, 9 days): higher than that with peptide B | Survival rate (%) Average ± Standard deviation (n = 4) (insect cell Sf9 [2]; sample concentration 0.1 mg/ml): 28.5 ± 3.4% | Survival rate (%) Average ± Standard deviation (n = 4) (insect cell Sf9 [2]; sample concentration 0.3 mg/ml): 47.3 ± 2.9% | Survival rate (%) Average ± Standard deviation (n = 4) (insect cell Sf9 [2]; sample concentration 1.0 mg/ml): 58.0 ± 3.2% | Survival rate (%) Average ± Standard deviation (n = 4) (insect cell Sf9 [2]; [3]): about 60% | survival rate compared with peptide B (comparative example) (insect cell Sf9 [2]; serum-deprived, 5 days): higher than that with peptide B

bovine serum albumin [reference compound]
OD 595 nm Average ± Standard deviation (n = 4) (insect cell Sf9 [1]; sample concentration 0.3 mg/ml): 0.90 ± 0.03 | Survival rate (%) Average ± Standard deviation (n = 4) (insect cell Sf9 [2]; sample concentration 0.3 mg/ml): 62.5 ± 3.0%

B1: Peptide B: peptide having the amino acid sequence of SEQ ID NO: 3, 2 repeats of the 38 amino acid sequence contained in natural sericin (WO 02/086133) (protein)
chain: SSTGSSSNTDSNSNSAGSSTSGGSSTYGYSSNSRDGSVSSTGSSSNTDSNSNSAGSSTSGGSSTYGYSSNSRDGSV
modifications: Peptide derived from sericin
OD 595 nm Average ± Standard deviation (n = 4) (insect cell Sf9 [1]; sample concentration 0.3 mg/ml): 0.72 ± 0.03 | Survival rate (%) Average ± Standard deviation (n = 4) (insect cell Sf9 [2]; sample concentration 0.3 mg/ml): 46.1 ± 2.2%
